Assay: Plasma escitalopram levels in Phase 1 study
Assay type: in vivo, human
Settings: for Escitalopram plasma levels, Average Day 21-23 / concentration at 21 day / concentration at 22 day / concentration at 23 day: 20 mg/day oral; for Escitalopram plasma levels, Average Day 21-23 / concentration at 7 day / concentration at 21 day / concentration at 22 day / concentration at 23 day: mean ± SEM; for concentration at 7 day / concentration at 21 day / concentration at 22 day / concentration at 23 day: both sexes, human, plasma; for concentration at 7 day: 10 mg/day, after 10 mg/day oral
Protocol: Study Design. A Phase 1, randomized, double-blind, placebo-controlled, single ascending dose study was performed to evaluate the safety, tolerability and pharmacokinetics (PK) of 5-HTP solution for IV infusion when administered to healthy adults taking a selective serotonin reuptake inhibitor (SSRI), escitalopram, for 3 weeks. Study duration was 37±3 days. The total individual subject participation time was no more than 66 days including screening, dosing, and follow-up phases. The IV infusion duration was 24 h, dosing with 5-HTP solution for IV infusion (see Example 3, above) or placebo (0.9% saline).
Pre-treatment with escitalopram. All subjects received pretreatment with escitalopram for 3 weeks prior to and during the 24 h IV infusion. A supply of escitalopram was provided for self-administration at a dose of 10 mg/day for 7 days. On Day 7 subjects were evaluated for general health and tolerability of escitalopram. Escitalopram compliance confirmation was evaluated by taking a blood draw for escitalopram plasma level measurements and by monitoring pill count using a diary. On Day 7 the subjects received a supply of 20 mg escitalopram tablets and self-administered 20 mg/day until Day 20 when they were admitted to the impatient clinic. Escitalopram was co-administered orally on Day 21-23 by clinical staff. Escitalopram treatment was tapered from 20 mg/day to 10 mg/day after the end of the infusion and continued for 8 days.
Bioanalysis. Plasma samples for 5-HTP analysis were collected and stored at −80° C. Plasma samples for escitalopram analysis were collected and stored at −80° C. Plasma 5-HTP levels and plasma escitalopram levels were measured using standard liquid chromatography with tandem mass spectrometry (LC-MS-MS) methods. For 5-HTP analysis, plasma samples were collected at T=0, 1, 2, 3, 4, 5, 6, 8, 10, 12, 14, 22, 24, 26, 28, 30, 32, 36, and 48 hr. For escitalopram analysis, plasma samples were collected on Day 7, Day 21 (pre-infusion), Day 22 (end of infusion), and Day 23 (24 hr after end of infusion). Plasma escitalopram levels were averaged across days 21-23, during the time-period when subjects were admitted to the clinic and received 5-HTP solution for IV infusion or placebo.
PK analysis of plasma escitalopram. Plasma escitalopram levels across Days 21-23 were averaged for each subject, and statistical analysis by one-way ANOVA for cohort differences executed using GraphPad Prism version 9.4.1.

[1] = oral, Cohort 1 (5-HTP 1 mg/kg, Constant)
[2] = oral, Cohort 2 (5-HTP 3 mg/kg, Constant)
[3] = oral, Cohort 3 (5-HTP 3 mg/kg, Ramped)
[4] = oral, 20 mg/day, Cohort 4 (5-HTP 2 mg/kg, Ramped)
[5] = oral, 20 mg/day, Cohort 5 (5-HTP 1 mg/kg, Ramped)
[6] = po, 20 mg/day, Cohorts 1-5 pooled, placebo infusion instead of 5-HTP, N=10

With `CN(C)CCC[C@@]1(c2ccc(F)cc2)OCc2cc(C#N)ccc21` [Escitalopram, escitalopram] the “Escitalopram plasma levels, Average Day 21-23” value (from here on “Escitalopram plasma levels”) (Cohort 1 (5-HTP 1 mg/kg, Constant)) was 39.7 ± 8.9 ng/mL, the “Escitalopram plasma levels” value (Cohort 2 (5-HTP 3 mg/kg, Constant)) was 25.6 ± 6.5 ng/mL and the “Escitalopram plasma levels” value (Cohort 3 (5-HTP 3 mg/kg, Ramped)) was 39.1 ± 4.8 ng/mL. The “Escitalopram plasma levels” value (Cohort 4 (5-HTP 2 mg/kg, Ramped)) was 29.2 ± 6.2 ng/mL, the “Escitalopram plasma levels” value (Cohort 5 (5-HTP 1 mg/kg, Ramped)) was 24.4 ± 5.0 ng/mL and the “Escitalopram plasma levels” value (Cohorts 1-5 pooled, placebo infusion instead of 5-HTP, N=10) was 44.0 ± 8.2 ng/mL. The “average plasma escitalopram levels, range across treatment groups” value (Days 21-23, 20 mg/day oral) was 24 to 44 ng/mL, the concentration at 7 day [1] was 19.3 ± 3.1 ng/mL and the concentration at 7 day [2] was 10.1 ± 1.5 ng/mL. The concentration at 7 day [3] was 17 ± 2.3 ng/mL, the concentration at 7 day (oral, Cohort 4 (5-HTP 2 mg/kg, Ramped)) was 14.2 ± 2.5 ng/mL and the concentration at 7 day (oral, Cohort 5 (5-HTP 1 mg/kg, Ramped)) was 11.4 ± 2.3 ng/mL. For the same molecule, the concentration at 21 day (oral, 20 mg/day, Cohort 1 (5-HTP 1 mg/kg, Constant)) was 39.8 ± 12.3 ng/mL, the concentration at 21 day (oral, 20 mg/day, Cohort 2 (5-HTP 3 mg/kg, Constant)) was 22.5 ± 10.2 ng/mL and the concentration at 21 day (oral, 20 mg/day, Cohort 3 (5-HTP 3 mg/kg, Ramped)) was 43.5 ± 4.5 ng/mL. For the same molecule, the concentration at 21 day [4] was 28.5 ± 5.8 ng/mL, the concentration at 22 day [4] was 28.8 ± 6.2 ng/mL and the concentration at 23 day [4] was 30.3 ± 7 ng/mL. It also gave a concentration at 21 day [5] of 21.7 ± 3.4 ng/mL, a concentration at 22 day [5] of 22.2 ± 4.7 ng/mL and a concentration at 23 day [5] of 29.2 ± 7.5 ng/mL. The concentration at 22 day [1] was 37.9 ± 7.3 ng/mL, the concentration at 23 day [1] was 41.6 ± 7.6 ng/mL and the concentration at 22 day [2] was 24.3 ± 5.7 ng/mL. The concentration at 23 day [2] was 30 ± 3.7 ng/mL, the concentration at 22 day [3] was 37.3 ± 5.9 ng/mL and the concentration at 23 day [3] was 36.6 ± 4.1 ng/mL. The concentration at 7 day (po, Cohorts 1-5 pooled, placebo infusion instead of 5-HTP, N=10) was 18.3 ± 3.1 ng/mL, the concentration at 21 day [6] was 43.3 ± 8.4 ng/mL and the concentration at 22 day [6] was 45.2 ± 9.1 ng/mL. It also gave a concentration at 23 day [6] of 43.5 ± 7.5 ng/mL.

From patent US11779567B2, “Method for optimizing 5-hydroxytryptamine function in the brain for therapeutic purposes” (Evecxia Therapeutics, Inc., priority 2021, dated 2023)
